Reference: ChEMBL document CHEMBL1154275, “Synthesis and biological evaluation of new heterocyclic quinolinones as anti-parasite and anti-HIV drug candidates” (Bioorg Med Chem Lett, 2009)
pEC50, pIC50: −log10 of the molar value.

Experiments:
[1] = test system: Human immunodeficiency virus 2; test: Antiviral activity against HIV2 ROD infected in human MT4 cells after 4 days by MTT assay; type: functional, organism-based, ISOLATE ROD; conditions: Human immunodeficiency virus 2, ISOLATE ROD, MT4, 96 h; read-out: EC50
[2] = Selectivity index, ratio of IC50 for human THP1 cells to IC50 for Plasmodium falciparum; type: toxicity, cell-based, THP-1
THP-1 = test: Cytotoxicity against human THP1 cells after 72 hrs by propidium iodide staining-based flow cytometry; type: cell-based; conditions: Homo sapiens, THP-1, 72 h; read-out: IC50
Plasmodium falciparum = test: Antimalarial activity against chloroquine, pyrimethamine, proguanil-resistant Plasmodium falciparum infected in human erythrocytes after 48 hrs by flow cytometry; type: functional, organism-based; conditions: Plasmodium falciparum, 48 h; read-out: IC50
Leishmania donovani [3] = test: Antileishmanial activity against Leishmania donovani MHOM/IN/78/80/DD8 promastigote by alamar blue method; type: functional, organism-based; conditions: Leishmania donovani, MHOM/IN/78/80/DD8; read-out: IC50
[4] = test system: Human immunodeficiency virus 1; test: Antiviral activity against HIV1 3B infected in human MT4 cells after 4 days by MTT assay; type: functional, organism-based; conditions: Human immunodeficiency virus 1, 3B, MT4, 96 h; read-out: EC50
Trichomonas vaginalis = test: Antitrichomonal activity against Trichomonas vaginalis TVR79 after 48 hrs by optical microscopy; type: functional, organism-based; conditions: Trichomonas vaginalis, TVR79, 48 h; read-out: IC50
[5] = Cytotoxicity against human MT4 cells after 4 days by MTT assay; type: cell-based; conditions: MT4 cells
Leishmania donovani [6] = test: Antileishmanial activity against Leishmania donovani MHOM/IN/78/80/DD8 amastigote by alamar blue method; type: functional, organism-based; conditions: Leishmania donovani, MHOM/IN/78/80/DD8; read-out: IC50

SMILES	pEC50 [1]	selectivity index ([2]; human, THP-1 cells)	pIC50 (THP-1)	pIC50 (Plasmodium falciparum)	pIC50 (Leishmania donovani [3])	pEC50 [4]	pIC50 (Trichomonas vaginalis)	CC50 at 96 h [5]	pIC50 (Leishmania donovani [6])	selectivity index ([2]; thp-1)
CC1(C)OC(=O)C(=CNc2ccc3ncsc3c2)C(=O)O1	< 4.41	> 8.3	< 3.30	4.22	< 3.70	< 4.41	< 3.70	> 39.1 µM	4.40	–
CC1(C)OC(=O)C(=CNc2cccc(-c3nc4ccccc4s3)c2)C(=O)O1	< 3.72	4	3.94	4.52	< 3.70	< 3.72	< 3.70	> 190 µM	< 3.70	–
CC1(C)OC(=O)C(=CNc2ccccc2-c2nc3ccccc3s2)C(=O)O1	< 4.38	–	< 3.60	< 3.60	< 3.60	< 4.38	< 3.60	41.6 µM	< 4.00	Not Active
Nc1ccc2[nH]ccc(=O)c2c1	≤ 3.30	> 5.5	< 3.30	4.05	< 3.70	< 3.20	< 3.70	≥ 631 µM	< 3.70	–
Cc1nc2ccc3c(c(=O)ccn3C)c2s1	< 3.47	–	3.94	< 3.60	< 4.00	< 3.47	< 4.00	> 341 µM	< 4.00	Not Active
Cc1nc2ccc3[nH]ccc(=O)c3c2s1	< 3.39	–	< 3.30	–	< 3.70	< 3.39	< 3.70	> 405 µM	< 3.70	–
CC1(C)OC(=O)C(=CNc2ccc3c(c2)OCO3)C(=O)O1	< 3.37	25	3.60	5.00	< 4.00	≤ 3.93	< 4.00	> 430 µM	4.70	–
C[C@@H]1[C@H](O)[C@@H](C)/C=C/C=C/C=C/C=C/C=C/C=C/C=C/[C@H](O[C@@H]2O[C@H](C)[C@@H](O)[C@H](N)[C@@H]2O)C[C@@H]2O[C@](O)(C[C@@H](O)C[C@@H](O)[C@H](O)CC[C@@H](O)C[C@@H](O)CC(=O)O[C@H]1C)C[C@H](O)[C@H]2C(=O)O [AMPHOTERICIN B]	–	–	–	–	–	–	–	–	7.00	–
Cc1ncc([N+](=O)[O-])n1CCO [METRONIDAZOLE]	–	–	< 3.30	–	–	–	5.57	–	–	–
CC1(C)OC(=O)C(=CNc2ccc3c(c2)OCCO3)C(=O)O1	< 3.37	–	< 3.30	< 3.30	< 3.70	< 3.37	< 3.70	> 428 µM	< 3.70	Not Active
CN(C)c1nc2ccc(NC=C3C(=O)OC(C)(C)OC3=O)cc2o1	< 3.42	> 6.25	< 3.60	4.40	< 4.00	< 3.42	< 4.00	> 378 µM	< 4.00	–
CCOC(=O)C(=CNc1ccc([N+](=O)[O-])cc1)C(=O)OCC	≤ 3.92	–	< 3.90	< 3.60	< 3.60	≤ 3.70	< 3.90	≥ 250 µM	< 4.00	Not Active
CC1(C)OC(=O)C(=CNc2ccc3[nH]c(=O)[nH]c3c2)C(=O)O1	< 3.38	–	< 3.30	< 3.30	< 3.70	< 3.38	< 3.70	> 412 µM	< 3.70	Not Active
Cc1nc2ccc(NC=C3C(=O)OC(C)(C)OC3=O)cc2s1	< 3.50	> 4.1	< 3.60	4.22	< 3.60	< 3.50	< 4.00	> 317 µM	< 3.70	–
CC1(C)OC(=O)C(=CNc2ccc3cn[nH]c3c2)C(=O)O1	< 3.36	–	< 3.60	< 3.60	< 4.00	< 3.36	< 4.00	> 436 µM	< 4.00	Not Active
CC1(C)OC(=O)C(=CNc2cccc([N+](=O)[O-])c2)C(=O)O1	< 3.60	> 4.1	< 3.60	4.22	< 4.00	< 3.60	< 4.00	> 251 µM	< 4.00	–
CC1(C)OC(=O)C(=CNc2ccc3[nH]nnc3c2)C(=O)O1	< 4.17	–	< 3.30	< 3.30	< 3.70	< 4.17	< 3.70	> 68.1 µM	< 3.70	Not Active
CC1(C)OC(=O)C(CNc2ccc3c(c2)CCC3)C(=O)O1	< 3.54	–	< 3.30	< 3.30	< 3.70	< 3.54	< 3.70	> 292 µM	< 3.70	Not Active
O=c1cc[nH]c2c([N+](=O)[O-])cccc12	< 4.15	–	< 3.30	< 3.30	< 3.70	< 4.15	< 3.70	> 71.6 µM	< 3.70	Not Active
O=c1cc[nH]c2c(-c3nc4ccccc4s3)cccc12	≤ 5.85	–	< 3.30	< 3.30	< 3.70	< 5.07	< 3.70	8.6 µM	< 3.70	Not Active
CC1(C)OC(=O)C(=CNc2ccc([N+](=O)[O-])cc2)C(=O)O1	< 4.67	> 6.2	< 3.60	4.40	< 4.00	< 4.67	< 4.00	> 21.2 µM	< 4.00	–
O=c1cc[nH]c2ccc([N+](=O)[O-])cc12	< 3.45	2.5	3.89	4.28	< 3.70	< 3.45	< 3.70	> 356 µM	< 3.70	–
O=c1cc[nH]c2cc3c(cc12)OCCO3	< 3.45	2.3	3.94	4.30	< 3.70	< 3.45	< 3.70	> 356 µM	< 3.70	–
C[C@H]1c2cccc(O)c2C(=O)C2=C(O)[C@]3(O)C(=O)C(C(N)=O)=C(O)[C@@H](N(C)C)[C@@H]3[C@@H](O)[C@@H]21 [DOXYCYCLINE]	–	3.1	4.70	–	–	–	–	–	–	–
